Reference: publication PMC8119466, “A screen of FDA-approved drugs identifies inhibitors of protein tyrosine phosphatase 4A3 (PTP4A3 or PRL-3)” (Scientific Reports, 2021)
Counter-ions that a name gives are not always drawn. Like-named read-outs stand apart in the source and are kept apart here. Non-standard residues stand in square brackets, D forms with d. Residues, ends and D or L forms follow the SMILES beside them. pGlu = O=C1CC[C@@H](C(=O)O)N1; Thz = O=C(O)[C@@H]1CSCN1

What was measured:
Assay type in all cases: biochemical
recombinant PRL-1 = target: T1, recombinant PRL-1 (Homo sapiens, UniProt Q93096); assay: In vitro phosphatase assay (DiFMUP hydrolysis), PRL-1; also: test concentration or dose not given here
T1 construct: 6xHis (N, cleaved yes); made in house; host or cells: E. coli One Shot BL21 Star
T1 sequence (Q93096 1-173): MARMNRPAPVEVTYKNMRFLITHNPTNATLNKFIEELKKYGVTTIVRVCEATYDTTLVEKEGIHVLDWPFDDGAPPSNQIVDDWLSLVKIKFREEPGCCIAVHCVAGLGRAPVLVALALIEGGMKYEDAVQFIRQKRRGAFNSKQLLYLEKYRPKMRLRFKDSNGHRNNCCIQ

recombinant PRL-2 = target: T2, recombinant PRL-2 (Homo sapiens, UniProt Q12974); assay: In vitro phosphatase assay (DiFMUP hydrolysis), PRL-2;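 also: PRL-2 activity read as DiFMUP hydrolysis after 20 min at room temperature with drug, enzyme first pre-reduced at 4 °C for 20 min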
T2 construct: 6xHis (N, cleaved yes); made in house; host or cells: E. coli One Shot BL21 Star
T2 sequence (Q12974 1-167): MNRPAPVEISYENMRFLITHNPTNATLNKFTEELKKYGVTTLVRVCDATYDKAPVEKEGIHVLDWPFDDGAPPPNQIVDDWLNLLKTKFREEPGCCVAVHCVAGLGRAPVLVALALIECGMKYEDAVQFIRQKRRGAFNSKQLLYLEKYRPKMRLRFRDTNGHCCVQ

recombinant PRL-3 = target: T3, recombinant PRL-3 (Homo sapiens, UniProt O75365); assay: In vitro phosphatase assay (DiFMUP hydrolysis), PRL-3; also: test concentration or dose not given here
T3 construct: 6xHis (N, cleaved yes); made in house; host or cells: E. coli One Shot BL21 Star
T3 sequence (O75365 whole entry): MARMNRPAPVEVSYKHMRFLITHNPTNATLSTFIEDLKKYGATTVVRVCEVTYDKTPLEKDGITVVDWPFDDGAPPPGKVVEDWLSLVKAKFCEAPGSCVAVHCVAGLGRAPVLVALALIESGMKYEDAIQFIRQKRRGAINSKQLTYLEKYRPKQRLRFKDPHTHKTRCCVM

[1] = FDA-approved drug screen, compared to DMSO

SMILES | % Phosphatase Activity (compared to DMSO) PRL-1 (recombinant PRL-1; [1]) [%] | % Phosphatase Activity (compared to DMSO) PRL-2 (recombinant PRL-2; [1]) [%] | % Phosphatase Activity (compared to DMSO) PRL-3 (recombinant PRL-3; [1]) [%] | % Phosphatase Activity (compared to DMSO) PRL-1 (recombinant PRL-1) [%] | % Phosphatase Activity (compared to DMSO) PRL-2 (recombinant PRL-2) [%] | % Phosphatase Activity (compared to DMSO) PRL-3 (recombinant PRL-3) [%]
CCC[C@H](N[C@@H](C)C(=O)N1[C@H](C(=O)O)C[C@@H]2CCCC[C@@H]21)C(=O)OCC [Perindopril Erbumine] | 88 | 84 | 96 | – | – | –
FC(F)(F)c1ccc(CNc2ccc(Cc3c[nH]c4ncc(Cl)cc34)cn2)cn1 [Pexidartinib (PLX3397)] | 102 | 100 | 101 | – | – | –
Cc1ccc(-n2nc(C(C)(C)C)cc2NC(=O)NCc2cc(F)ccc2Oc2ccc3c(cnn3CCO)c2)cc1 [Pexmetinib (ARRY-614)] | 106 | 103 | 117 | – | – | –
Nc1ccc(/N=N/c2ccccc2)c(N)n1 [Phenazopyridine HCl] | 64 | 61 | 55 | – | – | –
[H]/N=C(/N)N/C(=N/[H])NCCc1ccccc1 [Phenformin HCl] | 114 | 120 | 89 | – | – | –
O=C1c2ccccc2C(=O)C1c1ccccc1 [Phenindione] | 93 | 100 | 84 | – | – | –
CN(C)CCC(c1ccccc1)c1ccccn1 (stereo not drawn) [Pheniramine Maleate] | 98 | 104 | 70 | – | – | –
CC(COc1ccccc1)N(CCCl)Cc1ccccc1 (stereo not drawn) [Phenoxybenzamine HCl] | 106 | 112 | 81 | – | – | –
Cc1ccc(N(CC2=NCCN2)c2cccc(O)c2)cc1 [Phentolamine Mesylate] | 92 | 117 | 90 | – | – | –
CCCCC1C(=O)N(c2ccccc2)N(c2ccccc2)C1=O [Phenylbutazone] | 104 | 84 | 81 | – | – | –
CNC[C@H](O)c1cccc(O)c1 [Phenylephrine HCl] | 103 | 98 | 85 | – | – | –
O=C1NC(=O)C(c2ccccc2)(c2ccccc2)N1 [Phenytoin sodium] | 100 | 100 | 68 | – | – | –
CC(=O)NS(=O)(=O)c1ccc(NC(=O)c2ccccc2C(=O)O)cc1 [Phthalylsulfacetamide] | 104 | 120 | 101 | – | – | –
O=C1CC[C@@H](C(=O)N2CSC[C@H]2C(=O)O)N1 [Pidotimod] ([pGlu]-[Thz]-OH) | 113 | 103 | 83 | – | – | –
Cc1ccc(S(=O)(=O)Nc2nc3ccccc3nc2Nc2ccc3nsnc3c2)cc1 [Pilaralisib (XL147)] | 94 | 65 | 98 | – | – | –
O=C(NC[C@H](O)CO)c1ccncc1Nc1ccc(I)cc1F [Pimasertib (AS-703026)] | 99 | 92 | 84 | – | – | –
CC(C)COc1ccc(CNC(=O)N(Cc2ccc(F)cc2)C2CCN(C)CC2)cc1 [Pimavanserin] | 95 | 88 | 95 | – | – | –
CC[C@@H]1/C=C(\C)C[C@H](C)C[C@H](OC)[C@H]2O[C@@](O)(C(=O)C(=O)N3CCCC[C@H]3C(=O)O[C@H](/C(C)=C/[C@@H]3CC[C@H](Cl)[C@H](OC)C3)[C@H](C)[C@@H](O)CC1=O)[C@H](C)C[C@@H]2OC [Pimecrolimus] | 87 | 73 | 101 | – | – | –
COc1ccc(-c2nc3ccc(C4=NNC(=O)CC4C)cc3[nH]2)cc1 (stereo not drawn) [Pimobendan] | 122 | 118 | 95 | – | – | –
O=c1[nH]c2ccccc2n1C1CCN(CCCC(c2ccc(F)cc2)c2ccc(F)cc2)CC1 [Pimozide] | 91 | 106 | 96 | – | – | –

SMILES | % Phosphatase Activity (compared to DMSO) PRL-1 (recombinant PRL-1; [1]) [%] | % Phosphatase Activity (compared to DMSO) PRL-2 (recombinant PRL-2; [1]) [%] | % Phosphatase Activity (compared to DMSO) PRL-3 (recombinant PRL-3; [1]) [%] | % Phosphatase Activity (compared to DMSO) PRL-1 (recombinant PRL-1) [%] | % Phosphatase Activity (compared to DMSO) PRL-2 (recombinant PRL-2) [%] | % Phosphatase Activity (compared to DMSO) PRL-3 (recombinant PRL-3) [%]
CCc1ccc(CCOc2ccc(CC3SC(=O)NC3=O)cc2)nc1 (stereo not drawn) [Pioglitazone HCl] | 81 | 100 | 86 | – | – | –
CCc1ccc(CCOc2ccc(CC3SC(=O)NC3=O)cc2)nc1 (stereo not drawn) [Pioglitazone] | 103 | 105 | 80 | – | – | –
CCN1CCN(C(=O)N[C@@H](C(=O)N[C@@H]2C(=O)N3[C@@H]2SC(C)(C)[C@@H]3C(=O)O)c2ccccc2)C(=O)C1=O [Piperacillin Sodium] | 86 | 91 | 73 | – | – | –
C1CNCCN1 [Piperazine] | – | – | – | 95 | 112 | 71
O=C(/C=C/C=C/c1ccc2c(c1)OCO2)N1CCCCC1 [Piperine] | 125 | 119 | 106 | – | – | –
NC(=O)CN1CCCC1=O [Piracetam] | 98 | 96 | 83 | – | – | –
Cc1ccc(=O)n(-c2ccccc2)c1 [Pirfenidone] | 114 | 137 | 97 | – | – | –
CCn1cc(C(=O)O)c(=O)c2cnc(N3CCCC3)nc21 [Piromidic Acid] | 105 | 106 | 96 | – | – | –
CN1C(C(=O)Nc2ccccn2)=C(O)c2ccccc2S1(=O)=O [Piroxicam] | 88 | 76 | 70 | – | – | –
O=C(O)C[C@H](O)C[C@H](O)/C=C/c1c(C2CC2)nc2ccccc2c1-c1ccc(F)cc1 [Pitavastatin Calcium] | 82 | 88 | 92 | – | – | –
CN1CCC(=C2c3ccccc3CCc3sccc32)CC1.O=C(O)CC(O)C(=O)O [Pizotifen Malate] | 114 | 109 | 95 | – | – | –
Nc1cccc2c1C(=O)N(C1CCC(=O)NC1=O)C2=O (stereo not drawn) [Pomalidomide] | 264 | 248 | 204 | – | – | –
Cc1ccc(C(=O)Nc2ccc(CN3CCN(C)CC3)c(C(F)(F)F)c2)cc1C#Cc1cnc2cccnn12 [Ponatinib (AP24534)] | 396 | 417 | 319 | – | – | –
CCC/N=C1\S/C(=C\c2ccc(OC[C@H](O)CO)c(Cl)c2)C(=O)N1c1ccccc1C [Ponesimod] | 88 | 79 | 86 | – | – | –
CC[C@@H]([C@H](C)O)n1ncn(-c2ccc(N3CCN(c4ccc(OC[C@@H]5CO[C@@](Cn6cncn6)(c6ccc(F)cc6F)C5)cc4)CC3)cc2)c1=O [Posaconazole] | 89 | 99 | 73 | – | – | –
[I-].[K+] [Potassium Iodide] | 94 | 91 | 87 | – | – | –
C=CC(=O)N1CCC(Oc2cc3c(Nc4ccc(Cl)c(Cl)c4F)ncnc3cc2OC)CC1 [Poziotinib (HM781-36B)] | 96 | 80 | 106 | – | – | –
CCCCc1nc2cc(/C=C/C(=O)NO)ccc2n1CCN(CC)CC [Pracinostat (SB939)] | 96 | 87 | 80 | – | – | –
C#CCC(Cc1cnc2nc(N)nc(N)c2n1)c1ccc(C(=O)N[C@@H](CCC(=O)O)C(=O)O)cc1 (stereo partly drawn) [Pralatrexate] | 1180 | 1210 | 875 | – | – | –
C[n+]1ccccc1/C=N/O.[Cl-] [Pralidoxime (chloride)] | 99 | 91 | 105 | – | – | –
